Laboratory results published in patent US8809368B2, “Compounds affecting gap junction activity” (Kansas State University Research Foundation, priority 2006, dated 2014).

Experiments:
Cx43 [1] = assay: Western blot of Cx43 and phosphoCx43-Ser368 in R28 cells; format: cell-based, rat; conditions: PQ1, CoCl2 or a combination of both
Experimental: (A) About 70% confluent retinal R28 cells were treated with 100, 200 and 500 μM CoCl2 for 24 h with or without the pre-treatment of PQ1 (10 μM, 40 min) in a cell culture chamber (5% CO2, room air, 37° C.). Caspase-3 activation was determined by Western blotting in whole cell homogenates (WCH). (B) HIF1α stabilization was measured in the nuclear extracts (NE) after treatment with 500 μM CoCl2 at different time intervals with or without the pretreatment of PQ1. […] Levels of Cx43 and phosphoCx43-Ser368 are measured in WCH. β-Actin is used as a loading control.
Western blot. Western blotting was performed as described previously. Anti-Cx43 was purchased from Fred Hutchinson cancer research center (# Cx43NT1), anti-HIF1a was purchased from Novus Biologicals (# NB100-105), and anti-caspase-3 (# 9661), phosphor-Cx43 (Ser368) (#3511S) were purchased from Cell Signaling Technology and anti-b-actin was purchased from Sigma (# A5441).
Next, it was determined whether PQ1 inhibition of gap junctions could prevent retinal neurosensory R28 cells from apoptosis using a chemical (CoCl2)-induced ischemia system as our model. […] CoCl2 at 500 μM caused stabilization of HIF1a in the nuclear extracts and this stabilization started as early as three hours after treatment (FIG. 20B). This confirmed induction of hypoxia. […]

T47D cells [2] = assay: Electron microscopy of PQ1-treated cells; format: cell-based, human; conditions: PQ1 treatment
Cx43 [3] = assay: Western blot of Cx43 and phosphorylated Cx43 in T47D cells; format: cell-based, human; conditions: 10, 100, 200 and 500 nM, 24 hours
Experimental: (§1) T47D cells were dosed with PQ1 for 24 hours. The Western blot analysis was performed as described in Materials and Methods. Whole cell extract was analyzed for Cx 43, Cx32, and Cx26. Experiment was performed at least three times.
(§2) Furthermore, whole cell extract of PQ1 treatment was analyzed for the changes in gap junctional proteins, connexins. Cells were treated with 10, 100, 200, and 500 nM PQ1 for 24 hours. Western blot analysis was performed against Cx26, Cx32, and Cx43 (FIG. 17). […] Anti-tubulin was used as a loading control.
(§3) Western Blot Analysis. Cells were grown in serum supplemented RPMI media until they were 90% confluent in 75 cm^2 flasks. Cells were kept in starving media containing phenol red-free DMEM with 5% charcoal dextran stripped serum, overnight. Cells were dosed with 0, 10, 100, 200 and 500 nM of PQ1 for 24 hours. Cells were washed three times with cold PBS and then were harvested using lysis buffer (20 mM Tris pH 7.5, 0.5 mM EDTA, 0.5 mM EGTA, 0.5% Triton X-100) with 1:1000 dilution of protease inhibitors (Sigma-Aldrich, Saint Louis, Mo.). Cell lysate was sonicated and centrifuged at 13,000 rpm for 30 minutes at 4° C. […] Western blots were detected by enhanced chemiluminescence detection reagents (Pierce, Rockford, Ill., USA).

T47D cells [4] = assay: MTT assay, cell proliferation and viability, T47D cells; format: cell-based, human; conditions: 200 nM, 24 hours
Experimental: (§4) T47D breast cancer cells were treated with various concentrations of PQ1 for 24 hours. MTT assay was performed with adherent cell cultures using a culture medium free of phenol red and of serum. Solution containing MTT was metabolized by the cells (incubation period 3 hours). After solubilization of the MTT crystals with the solubilization solution MTT, the amount of dye was measured spectrophotometrically at 540 nm.
(§5) MTT assay: This assay is done to measure cell proliferation and viability. Yellow MTT (3-(4,5-Dimethylthiazol-2-yl)-2,5-diphenyltetrazolium bromide, a tetrazole) is reduced to purple crystals, formazan in the mitochondria of living cells. A solubilization solution is added to dissolve the insoluble purple formazan product into a colored solution. The absorbance of this colored solution can be measured by a spectrophotometer. T47 D cells (20,000) were grown in 96-well plate and dosed with 10, 100, 200, 500 nM of PQ1 compound in 100 μl of complete media for 24 hours. MTT (20 μl) was added to the cells and purple formazan crystals were observed after 90 minutes. A solubilization solution (0.35 N HCl) was added to dissolve the formazan and the absorbance was measured at 595 nm wavelength with a background wavelength 690 nm by a spectrophotometer.
(§6) The cytotoxicity of PQ1 in MEC and T47D cells using MTT assay was also determined. Cells were treated with 10, 100, 200, and 500 nM PQ1 for 24 hours. MTT assay was performed according to the manufacture's recommendations. A 200 nM PQ1 has 67% cell viability compared to controls (FIG. 16). Treatments of 100 and 200 nM PQ1 have 95% and 103% MEC cell viability compared to control. However, both MEC and T47D cells decrease cell viability to 50% and 65% at 1 μM PQ1, respectively. Thus, 100-200 nM of PQ1 is sufficient to enhance GJIC activity.
(§7) MTT assay. […] After solubilization of the MTT crystals with the solubilization solution MTT, the amount of dye will be measured spectrophotometrically at 540 nm.

[5] = as above; format: cell-based, human; conditions: human, T47D breast cancer cells
Experimental: as §4, §5, §6, §7

Cx32 = assay: Western blot of Cx32 in T47D cells; format: cell-based, human; conditions: 10, 100, 200 and 500 nM, 24 hours
Experimental: as §1, §2, §3

MDA-MB-231 = assay: Gap junction intercellular communication, MDA-MB-231 cells; format: cell-based, human; conditions: Table 1

| Compound | Cx43 gap junction protein levels (Cx43 [1]) | phosphorylation of Cx43 at residue ser368 (Cx43 [1]) | mitochondria by electron microscopy (T47D cells [2]) | Cx43 expression (Cx43 [3]) | decrease in cell proliferation (T47D cells [4]) [%] | viability at 24 h, 0.2 µM ([5]; 200 nM, 24 hours, read-out: cell viability compared to controls) [%] | viability at 24 h, 1 µM ([5]; 1 μM) [%] | Cx32 expression (Cx32) | effect on gap junction intercellular communication (MDA-MB-231) |
| --- | --- | --- | --- | --- | --- | --- | --- | --- | --- |
| COc1cc(NCCCN)c2nccc(C)c2c1Oc1cccc(C(F)(F)F)c1.O=C(O)CCC(=O)O [PQ1, 6-Methoxy-8-[(3-aminopropyl)amino]-4-methyl-5-(3-trifluoromethylphenyloxy) quinoline succinic acid] | did not cause any change | did not cause any change | Mitochondrial damage | no effect | 40 | 67 | 65 | no effect |  |
| COc1cc(N)c2nccc(C)c2c1Oc1cccc(C(F)(F)F)c1 [PQ3, 8-Amino-6-methoxy-4-methyl-5-(3-trifluoromethylphenyloxy)quinoline] |  |  |  |  |  |  |  |  | No effect |
